Measured values: patent US11226337B2, “Chemoproteomic profiling of protein electrophilic and oxidative post-translational modifications” (Zenagem, LLC, priority 2017, dated 2022)
“Also recorded” adds a separate entry of the source.

What was measured:
[1] = target: T1, THBS1 Thrombospondin1 (P07996) (Homo sapiens, UniProt P07996); assay: SILAC RP-ABPP; format: cell-based; conditions: SILAC H/L, MDA-MB-231
T1 construct: In Situ Labelling of Cells with Hydrazine Probes for MS Experiments; endogenous in cells
Method in brief: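 Heavy SILAC HEK293T or MDA-MB-231 cells were treated with hydrazine probe 1 (3 mM, 0.5 h); light cells received non-clickable hydrazine 3 at the same concentration (enrichment) or probe plus 10× competitor 3 (competition). Lysates were mixed, clicked to biotin-azide and analysed by LC-MS; values are median heavy:light peptide ratios averaged over ≥3 replicates.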

AMD1 pyruvoyl cofactor = target: T2, AMD1 pyruvoyl cofactor (Homo sapiens, UniProt P17707); assay: in vitro labelling of purified reconstituted AMD1, LC-MS/MS; format: binding; conditions: 50 μM AMD1, 3 mM probe 1, overnight
T2 construct: made in house; host or cells: E. coli (vector pQE30)
Experimental: Full-length AMD1 having an additional 12 amino acids (MRGSH6GS) (SEQ ID NO: 46) appended to the N-terminal methionine residue was expressed from the bacterial vector pQE30. The appendage contains a His6 element (SEQ ID NO: 69) to permit purification of the protein by metal ion affinity chromatography on Ni-NTA agarose (Qiagen). E. coli cell cultures were grown at 37° C. in rich LB broth (35 g/L tryptone, 20 g/L yeast extract, 5 g/L NaCl, and 0.05 g/L kanamycin (pH 7.0)) to an optical density at 600 nm of 0.6-0.8. The flasks were cooled rapidly by incubation on ice for 30 minutes prior to addition of IPTG (1 mM). Following induction, cultures were grown at 15-18° C. for an additional 16-20 hours and cells were harvested by centrifugation (8,000 g, 30 min, 4° C.). The cell paste was flash-frozen in liquid N2 and stored at −80° C. A typical yield was 8-10 g of wet cell paste per liter of culture. […]
A 100 μL solution of 50 μM purified reconstituted AMD1 in PBS was incubated overnight at ambient temperature in the presence or absence of 3 mM probe 1 (pH 7). […] Peptides were eluted from the column using a 180 minute gradient from 0% to 50% Buffer B (Buffer A: 5% acetonitrile, 95% H2O, 0.1% formic acid; Buffer B: 80% acetonitrile, 20% H2O, 0.1% formic acid) and analyzed on an LTQ-Orbitrap Finnigan mass spectrometer (Thermo Scientific). […]

T2 sequence (P17707 68-334 limits assumed): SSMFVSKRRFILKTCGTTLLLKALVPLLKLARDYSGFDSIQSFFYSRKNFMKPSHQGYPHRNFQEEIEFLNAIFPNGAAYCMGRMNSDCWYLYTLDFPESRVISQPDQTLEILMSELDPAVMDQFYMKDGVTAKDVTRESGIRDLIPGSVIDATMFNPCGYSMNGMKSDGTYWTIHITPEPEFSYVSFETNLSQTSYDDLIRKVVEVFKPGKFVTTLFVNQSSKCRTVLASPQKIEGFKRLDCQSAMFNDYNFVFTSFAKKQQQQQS
T2 sequence (P17707 1-67 partner limits assumed): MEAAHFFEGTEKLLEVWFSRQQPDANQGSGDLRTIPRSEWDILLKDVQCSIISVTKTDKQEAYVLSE
T1 sequence (P07996 19-1170): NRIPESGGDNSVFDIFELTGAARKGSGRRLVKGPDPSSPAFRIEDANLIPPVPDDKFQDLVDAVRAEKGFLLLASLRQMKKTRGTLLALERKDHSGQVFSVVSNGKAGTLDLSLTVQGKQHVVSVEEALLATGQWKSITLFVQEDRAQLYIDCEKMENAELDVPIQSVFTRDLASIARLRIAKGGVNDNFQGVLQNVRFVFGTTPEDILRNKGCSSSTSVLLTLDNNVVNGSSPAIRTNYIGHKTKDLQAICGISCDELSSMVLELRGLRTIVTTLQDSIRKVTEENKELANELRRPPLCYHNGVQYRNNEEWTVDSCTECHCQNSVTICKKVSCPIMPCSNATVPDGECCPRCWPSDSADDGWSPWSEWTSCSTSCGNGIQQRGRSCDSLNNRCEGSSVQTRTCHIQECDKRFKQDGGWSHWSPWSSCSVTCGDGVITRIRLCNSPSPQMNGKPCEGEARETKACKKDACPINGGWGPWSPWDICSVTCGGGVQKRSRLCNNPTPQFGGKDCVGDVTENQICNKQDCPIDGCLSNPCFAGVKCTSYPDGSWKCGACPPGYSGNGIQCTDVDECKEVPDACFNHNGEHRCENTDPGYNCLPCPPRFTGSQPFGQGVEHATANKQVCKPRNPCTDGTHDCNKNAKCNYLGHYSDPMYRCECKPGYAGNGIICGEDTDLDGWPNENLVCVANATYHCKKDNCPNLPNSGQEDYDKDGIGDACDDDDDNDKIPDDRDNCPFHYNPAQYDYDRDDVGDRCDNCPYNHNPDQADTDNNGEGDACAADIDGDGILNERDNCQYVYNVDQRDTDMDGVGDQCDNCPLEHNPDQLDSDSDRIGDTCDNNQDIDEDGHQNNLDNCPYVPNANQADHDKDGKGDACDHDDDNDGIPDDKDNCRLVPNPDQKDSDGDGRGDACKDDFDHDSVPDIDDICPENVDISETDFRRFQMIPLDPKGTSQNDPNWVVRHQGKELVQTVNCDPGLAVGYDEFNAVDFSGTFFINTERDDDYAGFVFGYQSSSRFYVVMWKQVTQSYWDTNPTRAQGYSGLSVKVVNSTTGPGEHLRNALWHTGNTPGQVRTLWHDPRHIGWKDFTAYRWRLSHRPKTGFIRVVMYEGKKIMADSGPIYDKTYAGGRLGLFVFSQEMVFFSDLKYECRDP

In the case of `C#CCNN.Cl` [probe 1, prop-2-yn-1-ylhydrazine hydrochloride], the enrichment ratioavg ([1]; probe 1 3 mM 0.5 h vs probe 3) is reported as 16, the competition ratioavg ([1]; probe 1 vs probe 1+10x probe 3) is reported as 1 and the “site specificity of the reaction” value (AMD1 pyruvoyl cofactor) is reported as “reacted specifically with the N-terminal pyruvoyl group”. For the same compound, the “extent of reaction with the pyruvoyl group” value (AMD1 pyruvoyl cofactor; ambient temperature, hydrochloride) was “the reaction with probe 1 was complete; also recorded: proceeded to near-completion”.
